Measured values from article PMC3951423, “Structural Bases of Norovirus RNA Dependent RNA Polymerase Inhibition by Novel Suramin-Related Compounds” (PLoS ONE, 2014).
≈ marks a conversion by molar mass, not a printed value. Where “and” joins values, the source holds several entries; their conditions need not be identical. Equal values may be shown once. Where a name gives a salt, the structure may show the parent alone.

Key:
[1] = target: T1, mNV-RdRp (Norovirus, UniProt Q80J95); assay: In-vitro RdRp inhibition assay (PicoGreen fluorescence, poly(C)/oligoG12); format: biochemical; conditions: poly(C) template, G12 primer, GTP 100 μM; read-out: IC50 mNVRdRp
T1 construct: Solutions of 4 μl of the NV-RdRp domain (final hNV-RdRp concentration 7 μM, final mNV-RdRp concentration 1.6 μM); made in house
Protocol: (§1) hNV and mNV-RdRp inhibition assays were performed monitoring the impairment of RNA synthesis as a function of inhibitor concentration, as previously described. Briefly, RdRp activity was assessed in vitro (measuring PicoGreen fluorescence) following the synthesis of double-stranded RNA from a single-stranded RNA poly(C) template annealed with a G12 primer. The assay can easily be adapted for any viral RNA polymerase.
(§2) RdRp assays were performed as previously described. In brief poly(C) (MP Biomedicals) was used as template annealed with oligoG12 as primer (62.5 nM final concentration) and GTP (100 μM final concentration) as substrate, in a 200 μl reaction mixture containing 20 mM Tris/HCl pH 7.5, 25 mM NaCl, 5 mM MgCl2, 0.3 mM MnCl2, 1 mM DTT, PicoGreen Quantitation Reagent (Molecular Probes) diluted 1/200 20 U ml−1 RiboLock Ribonuclease Inhibitor (Fermentas). Reactions were started by the addition of GTP following the fluorescence of samples in a fluorescence reader (Varian, Cary Eclipse Fluorescence Spectrophotometer).

[2] = target: T2, hNV-RdRp (Norovirus GII (human norovirus; Norwalk-like virus), UniProt A0ZNP5); assay: as above; format: biochemical; conditions: poly(C) template, G12 primer, GTP 100 μM; read-out: IC50 hNVRdRp
Protocol: as §1, §2

[3] = Water solubility (Bookser's method); format: physicochemical; conditions: thermodynamic from solid, deionized water, saturated solution
Source text: (§3) Bookser's method was applied to obtain the water solubility of sodium organosulphonates 3–8 and Suramin (9) by use of HPLC with a UV detector (see Table 1). Furthermore, the “shake–flask method” [28] was applied to obtain their hydrophobicity by use of n-octanol and water. The apparent partition coefficient (P) shown in Table 1 is the ratio of the concentration in n-octanol to the total concentration (i.e., ionized plus non-ionized) of the species in the aqueous phase, [29].
A stock solution was prepared by dissolving a precisely weighed amount of Suramin derivatives in deionized water (1.0 ml). The UV absorption maximum of each compound was measured by dilution of the solution with deionized water as necessary. A saturated solution of each compound was then prepared by use of deionized water (1.0 ml) in the presence of an excess of Suramin derivatives for 1.0 hour. The obtained saturated solution was filtered to remove solid compound through a Millipore filter (0.45 μm) and was scanned by UV spectroscopy at the wavelength of the absorption maximum previously determined.

[4] = n-Octanol/water partition coefficient (shake-flask method); format: physicochemical; conditions: n-octanol / pH 7.4 phosphate buffer, 25 °C, average of three experiments, read-out: hydrophobicity log P
Source text: as §3
The n-octanol/water partition coefficient of Suramin derivatives was determined by the shake-flask method. n-Octanol and pH 7.4 phosphate buffer were mutually saturated for 4.0 hours, and the phases were separated. A stock solution of each Suramin derivative was prepared using pH 7.4 phosphate buffer solution. Suramin derivatives were partitioned between n-octanol and pH 7.4 phosphate buffer. Then the phase mixtures were shaken for 1 hour at constant 25 °C. After separation, the absorbance of the phosphate buffer solutions (pH 7.4) was measured by UV spectrophotometry. Three replicates were performed for each compound. The P value corresponded to the quotient between n-octanol and buffer concentrations of the drug. The log P values were an average of three independent experiments.

[5] = target: T1, mNV-RdRp; assay: Thermofluorimetric (thermal shift) assay; format: binding; conditions: inhibitor 4 μM, mNV-RdRp 1.6 μM, Sypro Orange; free enzyme Tm 39.6 ±0.2
Protocol: (§4) In order to exclude that 8 and 6 inhibition might be linked to some form of RdRp destabilization/aggregation/denaturation, a process generally reflected by a variation of the protein melting temperature (Tm), we performed thermofluorimetric assays on free and inhibited NV-RdRps.
(§5) Thermofluorimetric (Thermal shift) assays for the evaluation of the hNV-RdRp melting temperature (Tm) in the absence/presence of the inhibitors, were conducted in a MiniOpticon Real Time PCR Detection System (Bio-Rad), using the fluorescent dye Sypro Orange. Solutions of 4 μl of the NV-RdRp domain (final hNV-RdRp concentration 7 μM, final mNV-RdRp concentration 1.6 μM) were diluted in 9.5 μl of its buffer, and mixed with 3.5 μl of Sypro orange (Sigma) diluted 60×, and 1 μl of 6 or 8 (4 μM final concentration). In control samples the inhibitors were replaced by water. The sample plates were heated from 20 to 90°C with a heating rate of 0.2 °C/min. Fluorescence intensities were measured within excitation/emission ranges of 470–505 nm and 540–700 nm, respectively.

[6] = target: T2, hNV-RdRp; assay: Thermofluorimetric (thermal shift) assay; format: binding; conditions: inhibitor 4 μM, hNV-RdRp 7 μM, Sypro Orange; free enzyme Tm 41.5
Protocol: as §4, §5

[7] = Solubility in organic solvents (observation during synthesis); format: physicochemical; conditions: most organic solvents, including THF and DMSO
[8] = system: NV-RdRp; set-up: method as in earlier work; conditions: ref 34 (Tarantino et al., in press); cited from earlier work
[9] = statement in the Introduction, no reference given; cited from earlier work

In the case of `Cc1ccc(C(=O)Nc2ccc(S(=O)(=O)O)c3cccc(S(=O)(=O)O)c23)cc1[N+](=O)[O-]` [Compound 3, 4-(4-Methyl-3-nitrobenzamido)naphthalene-1,5-disulphonate Acid Disodium Salt], the IC50 [1] is reported as 0.2 ± 0.01 µM, the IC50 [2] is reported as 1.28 ± 0.07 µM and the solubility at 1 h [3] is reported as 260 mg/mL. It also gave a logP at 1 h [4] of -2.19.
Work on `Cc1ccc(C(=O)Nc2ccc(S(=O)(=O)O)c3cccc(S(=O)(=O)O)c23)cc1N` [Compound 4, 4-(3-Amino-4-methylbenzamido)naphthalene-1,5-disulphonate Acid Disodium Salt] yielded an IC50 [1] of 0.16 ± 0.007 µM, an IC50 [2] of 1.1 ± 0.2 µM and a solubility at 1 h [3] of 339 mg/mL. For the same compound, the logP at 1 h [4] was -2.33.
For `Cc1ccc(C(=O)Nc2ccc(S(=O)(=O)O)c3cccc(S(=O)(=O)O)c23)cc1NC(=O)c1cccc([N+](=O)[O-])c1` [Compound 6, 4-[4-Methyl-3-(3-nitrobenzamido)benzamido]naphthalene-1,5-disulsulphonate Acid Disodium Salt], the “mNV-RdRp Tm in the presence of inhibitor” value [5] was 39.4±0.3 °C, the “hNV-RdRp Tm in the presence of inhibitor” value [6] was 41.2±0.2 °C and the IC50 [1] was 0.115 ± 0.015 µM. The IC50 [2] was 1 ± 0.09 µM, the solubility at 1 h [3] was 179 mg/mL and the logP at 1 h [4] was -1.64.
In the case of `Cc1ccc(C(=O)Nc2ccc(S(=O)(=O)O)c3cccc(S(=O)(=O)O)c23)cc1NC(=O)c1cccc(N)c1` [Compound 7, 4-[3-(3-Aminobenzamido)-4-methylbenzamido]naphthalene-1,5-disulphonate Acid Disodium Salt], the IC50 [1] is reported as 0.16 ± 0.006 µM, the IC50 [2] is reported as 1.1 ± 0.05 µM and the “Solubility in organic solvents” value [7] is reported as “very poor”. It also gave a solubility at 1 h [3] of 249 mg/mL and a logP at 1 h [4] of -2.11.
With `Cc1ccc(C(=O)Nc2ccc(S(=O)(=O)O)c3cccc(S(=O)(=O)O)c23)cc1NC(=O)c1cccc(NC(=O)Nc2cccc(C(=O)Nc3cc(C(=O)Nc4ccc(S(=O)(=O)O)c5cccc(S(=O)(=O)O)c45)ccc3C)c2)c1` [Compound 8, 4-4′-(Carbonylbis[imino-3,1-phenylenecarbonylimino(4-methyl-3,1-phenylene)carbonylimino])bis-1,5-naphthalenedisulphonate Acid Tetrasodium Salt] the “mNV-RdRp Tm in the presence of inhibitor” value [5] was 39.8 ±0.2 °C, the “hNV-RdRp Tm in the presence of inhibitor” value [6] was 41.4 °C and the IC50 [1] was ~0.06 µM and 0.06 µM. The IC50 [2] was 0.028 ± 0.004 µM, the solubility at 1 h [3] was 114 mg/mL and the logP at 1 h [4] was -1.61.
In the case of `Cc1nc(N=Nc2cc(S(=O)(=O)O)c3cc([N+](=O)[O-])cc(S(=O)(=O)O)c3c2)c(COP(=O)(O)O)c(C=O)c1O` [PPNDS], the “inhibitory potency against NV-RdRp” value [8] is given as “low nM”.
For `Cc1ccc(C(=O)Nc2ccc(S(=O)(=O)O)c3cc(S(=O)(=O)O)cc(S(=O)(=O)O)c23)cc1NC(=O)c1cccc(NC(=O)Nc2cccc(C(=O)Nc3cc(C(=O)Nc4ccc(S(=O)(=O)O)c5cc(S(=O)(=O)O)cc(S(=O)(=O)O)c45)ccc3C)c2)c1` [Suramin (9), Suramin], the “log P” value [9] is given as “lower than 0”, the IC50 [1] is given as 0.07 ± 0.003 µM and the IC50 [2] is given as 0.027 ± 0.003 µM. It also gave a solubility at 1 h [3] of 138 mg/mL (≈ 106 mM) and a logP at 1 h [4] of -3.42.
